Values quoted from earlier work in patent US8715625B1, “Natural oral care compositions” (The Clorox Company, priority 2010, dated 2014).

System: plaque
Conditions: two tests conducted by Purdue University's Dental Science Research Group

## C=C1C[C@@]23CC[C@H]4[C@@](C)(CCC[C@@]4(C)C(=O)O[C@@H]4O[C@H](CO)[C@@H](O)[C@H](O)[C@H]4O)[C@@H]2CC[C@]1(O[C@@H]1O[C@H](CO)[C@@H](O)[C@H](O)[C@H]1O[C@@H]1O[C@H](CO)[C@@H](O)[C@H](O)[C@H]1O)C3 [Stevioside]
  development of plaque: “significantly” inhibits the development of plaque
